Test results published in patent US12616704B2, “Cannabichromene formulation for pain management” (Zyus Life Sciences Inc., priority 2020, dated 2026).

Legend:
[1] = Body weight monitoring in SNL study; assay type: in vivo, Sprague-Dawley rats; conditions: SNL rats; CBC 10 mg/kg, pregabalin 50 mg/kg; two-way ANOVA, Tukey's
Method: Body Weight Monitoring. The body weight of the animals was recorded at baseline evF testing, on the day of surgery (DO), and daily thereafter.

[2] = system: SNL-induced mechanical hypersensitivity; experiment: Tactile allodynia test (electronic von Frey, evF) in spinal nerve ligation (SNL) model; assay type: in vivo, Sprague-Dawley rats; conditions: for evF, Vehicle vs. treatment: Summary / evF, Vehicle vs. treatment: Predicted (LS) mean diff.: between groups; for evF, Vehicle vs. treatment: Predicted (LS) mean diff. / evF, Pre-Dosing vs. 2 h-PD: Predicted (LS) mean diff. / evF, Pre-Dosing vs. 4 h-PD: Predicted (LS) mean diff. / evF, Pre-Dosing vs. 8 h-PD: Predicted (LS) mean diff. / evF, Pre-Dosing vs. 24 h-PD: Predicted (LS) mean diff.: PWT % from baseline; for Post-SNL vs. BL: Predicted (LS) mean diff.: evF PWT % from baseline; for Post-SNL vs. BL: Predicted (LS) mean diff. / Post-SNL vs. BL: Significant? / Post-SNL vs. BL: Summary: baseline vs. D7 (pre-dosing, before treatment); for Post-SNL vs. BL: Predicted (LS) mean diff. / Post-SNL vs. BL: Significant? / Post-SNL vs. BL: Summary / evF, Pre-Dosing vs. 2 h-PD: Summary / evF, Pre-Dosing vs. 4 h-PD: Summary / evF, Pre-Dosing vs. 8 h-PD: Summary / evF, Pre-Dosing vs. 24 h-PD: Summary / evF, Pre-Dosing vs. 2 h-PD: Predicted (LS) mean diff. / evF, Pre-Dosing vs. 4 h-PD: Predicted (LS) mean diff. / evF, Pre-Dosing vs. 8 h-PD: Predicted (LS) mean diff. / evF, Pre-Dosing vs. 24 h-PD: Predicted (LS) mean diff.: within group; for duration of prolonged anti-nociceptive effect after one-time administration / Post-SNL vs. BL: Significant? / Post-SNL vs. BL: Summary: evF; for AUC of % PWT curve, Vehicle vs. treatment: Mean Diff. / AUC of % PWT curve, Vehicle vs. treatment: Summary: pre-dosing to 24 h PD; for evF, Pre-Dosing vs. 24 h-PD: Summary / evF, Pre-Dosing vs. 24 h-PD: Predicted (LS) mean diff.: pregabalin 50 mg/kg i.p. re-dosed 2 h before evF on D9
Method: The treatment groups received the following test article mixtures: • Group 1: treated with vehicle (0.9% saline) • Group 2: treated with Pregabalin (50 mg/kg) • Group 3: treated with CBC (10 mg/kg)
Administration of Treatments. CBC (cannabichromene) formulation, the vehicle, or pregabalin treatment was administered according to Table 1 on study day 8 to all study animals, and on study day 10 to 6 animals per group. The dousing route of CBC or the vehicle were intragastric (p.o.), while pregabalin was administered intraperitoneally (i.p.). In addition to D8, pregabalin was administered on D9, at 2 h prior to the evf test. All animals of the pregabalin group were euthanized on D9, following the last test trial. The CBC was dissolved and diluted to one of the following vehicles:
Spinal Nerve Ligation (SNL) Surgery. The animals were enrolled to SNL surgery in daily cohorts of n=6, according to the number of animals operated per day). The rat first received an intraperitoneal dose of 0.03 mg/kg buprenorphine (Temgesic), at minimum of 30 minutes prior to the surgery, to alleviate the operative and postoperative pain unrelated to neuropathy. The rats were anesthetized with isoflurane in 70% N2O and 30% O2; with a flow rate of 300 ml/min. Anesthesia was inducted with 5% isoflurane for 2-3 min, and maintained through a snout mask with 1-2% isoflurane thereafter.
A dorsal incision extending from L3 to S2 was performed to the medial dorsal area of the rat using aseptic technique. The L6/S1 posterior intrarticular process was exposed using a combination of blunt and sharp dissection. The L6 transverse process in the spinal column was visualized and partially removed without manipulating the nerves, followed by exposing the L4 and L5 spinal nerves distal to their emergence from the intervertebral foramina. Tight double knots of 6-0 silk suture were placed on both spinal nerves.
Tactile Allodynia Test (evF). In this study, mechanical sensitivity to punctate stimulus was defined at six time points, by using electronic von Frey (evF) device with the attached analysis software (Somedic®, Sweden).
Rats displaying inborn oversensitivity were disqualified from the study. Oversensitivity was defined as baseline paw withdrawal threshold (PWT) of <20 g with 1 mm probe. Following the baseline evF testing, the rats were weighed and numbered prior to surgery.
To perform the evF test, the rats were placed in individual von Frey test chambers standing on an elevated steel mesh. The rats were allowed to adapt in the chambers, and the test emerged after they had settled down after investigating the chamber and grooming (approximately 15 min).
Mechanical allodynia was assessed by evF test prior to SNL surgery (baseline), to define the individual “innate” sensitivity levels of the study animals. Next, the evF was performed on D7 post-SNL, to assess the hypersensitivity evoked by the SNL surgery, and to evaluate pre-dosing sensitivity values. Next day (D8), the animals were tested by evF at 2 h, at 4 h, and at 8 h post-dosing (PD). The last evF time point occurred at 24 h PD, i.e. on D9. The listed post-dosing times were used for all groups except group 2, which on D9 received pregabalin at 2 h prior to evF.
The evF apparatus was used according to the manufacturer's instructions. Briefly, upon each measurement, the force was applied to mid-plantar surface of the hind paw in a linearly increasing rate. The used evF probe diameter was 1 mm, and the chosen ascent rate of force 10 g/s. Linearity of force application was monitored real-time. The applied force (in grams) causing paw withdrawal was recorded by the
Altogether 5 repeated measurements were applied to each hind paw at each time-point, leaving a minimum of 3-min interval between the repeats. Three values closest to the median were then averaged to produce result value for each paw at any given time point. Both ipsi- and contralateral paws were tested on each test day.
Statistical Analysis. […]

[3] = system: SNL model effect; experiment: Data mining (cPCA) of kinematic gait data: SNL model (analgesic) and sedation effect scores; assay type: in vivo, rats
Method: Data mining was successfully performed to extend the multivariate kinematic data analysis and capture the analgesic effect of cannabichromene (CBC) on quantitative measurement of parameters attributed to the temporal aspects of motion to evaluate temporal aspects of motion, such as positions, angles, velocities, and accelerations of body segments and joints during motion.
Overall, 97 gait parameters were analyzed, and each parameter was averaged within each treatment group. A statistical method using Contrastive Principal Component Analysis (cPCA) was employed (Abid et al., 2018). The method of cPCA was designed to identify different combinations of original variables linked to the Spinal Nerve Ligation (SNL) model effect (pain) and learning effect. An orthogonalization procedure was then performed to create the obtained effects independent of learning and possible sedation. After the contrastive principal components (cPCs) (Model, Sedative) were established, the corresponding cPC scores were computed for each observation. The obtained cPC scores were further analyzed by using mixed two-way ANOVA followed by Dunnett's test of the estimated marginal means. The cPCA based analysis framework was implemented using R environment (R version 3.6.3). Statistical analysis was performed using Ime4 (Bates et al., 2015) and emmeans (R package version 1.4.5.) packages. The results of these comparisons were obtained by using all the previously identified components: model effect, learning effect and model orthogonal to learning.

[4] = 2 h-PD, CBC 10 mg/kg p.o., pregabalin 50 mg/kg i.p.
[5] = 4 h-PD, CBC 10 mg/kg p.o., pregabalin 50 mg/kg i.p.
[6] = 8 h-PD, CBC 10 mg/kg p.o., pregabalin 50 mg/kg i.p.
[7] = 24 h-PD (D9), CBC 10 mg/kg p.o., pregabalin 50 mg/kg i.p. re-dosed 2 h before evF
[8] = CBC 10 mg/kg p.o., pregabalin 50 mg/kg i.p.

CCCCCc1cc(O)c2c(c1)OC(C)(CCC=C(C)C)C=C2 (stereo not shown) [CBC, cannabichromene]
body weight vs. vehicle over the course of the study [1]: not significantly different | evF, Vehicle vs. treatment: Summary [2, 4]: ns | evF, Vehicle vs. treatment: Predicted (LS) mean diff. [2, 4]: −15.45 | evF, Vehicle vs. treatment: Summary [2, 5]: ns | evF, Vehicle vs. treatment: Predicted (LS) mean diff. [2, 5]: −10.25 | evF, Vehicle vs. treatment: Summary [2, 6]: ns | evF, Vehicle vs. treatment: Predicted (LS) mean diff. [2, 6]: −17.12 | evF, Vehicle vs. treatment: Summary [2, 7]: ns | evF, Vehicle vs. treatment: Predicted (LS) mean diff. [2, 7]: −14.84 | effect on SNL-induced hypersensitivity (evF), between-group ([2]; CBC 10 mg/kg p.o.): appears to evoke a trend of reversing hypersensitivity | evF, Vehicle vs. treatment: Summary ([2]; Pre-Dosing (D7)): ns | evF, Vehicle vs. treatment: Predicted (LS) mean diff. ([2]; Pre-Dosing (D7)): −0.627 | Post-SNL vs. BL: Predicted (LS) mean diff. [2]: 45.98 | duration of prolonged anti-nociceptive effect after one-time administration [2, 8]: up to 8 hours | Post-SNL vs. BL: Significant? [2]: Yes | Post-SNL vs. BL: Summary [2]: **** (p<0.0001, extremely/highly significant) | AUC of % PWT curve, Vehicle vs. treatment: Mean Diff. [2, 8]: −50.00 | AUC of % PWT curve, Vehicle vs. treatment: Summary [2, 8]: ** (p<0.01, very significant) | evF, Pre-Dosing vs. 2 h-PD: Summary [2, 8]: *** (p<0.001, extremely/highly significant) | evF, Pre-Dosing vs. 4 h-PD: Summary [2, 8]: * (p<0.05, significant) | evF, Pre-Dosing vs. 8 h-PD: Summary [2, 8]: * (p<0.05, significant) | evF, Pre-Dosing vs. 24 h-PD: Summary ([2]; CBC 10 mg/kg p.o.): ns | evF, Pre-Dosing vs. 2 h-PD: Predicted (LS) mean diff. [2, 8]: −29.36 | evF, Pre-Dosing vs. 4 h-PD: Predicted (LS) mean diff. [2, 8]: −18.71 | evF, Pre-Dosing vs. 8 h-PD: Predicted (LS) mean diff. [2, 8]: −19.64 | evF, Pre-Dosing vs. 24 h-PD: Predicted (LS) mean diff. ([2]; CBC 10 mg/kg p.o.): −15.44 | SNL model effect score (analgesic effect) ([3]; 9 hours post-dosing, single dose CBC 10 mg/kg p.o.): No significant analgesic effect | SNL model score (analgesic effect) compared to vehicle group: p ([3]; D8 5 h post-dosing, single dose CBC 10 mg/kg p.o.): < 0.05 | independent sedation effect score ([3]; D8, 5 h and D8, 9 h post-dosing, CBC 10 mg/kg, CBD:THC 10:10 mg/kg): did not exert any sedative effect

CC(C)C[C@H](CN)CC(=O)O [Pregabalin, pregabalin, reference compound]
body weight vs. vehicle over the course of the study [1]: not significantly different | evF, Vehicle vs. treatment: Summary [2, 4]: ns | evF, Vehicle vs. treatment: Predicted (LS) mean diff. [2, 4]: −12.08 | evF, Vehicle vs. treatment: Summary [2, 5]: ns | evF, Vehicle vs. treatment: Predicted (LS) mean diff. [2, 5]: −0.8299 | evF, Vehicle vs. treatment: Summary [2, 6]: ns | evF, Vehicle vs. treatment: Predicted (LS) mean diff. [2, 6]: −12.91 | evF, Vehicle vs. treatment: Summary [2, 7]: ns | evF, Vehicle vs. treatment: Predicted (LS) mean diff. [2, 7]: −7.967 | evF, Vehicle vs. treatment: Summary ([2]; Pre-Dosing (D7)): ns | evF, Vehicle vs. treatment: Predicted (LS) mean diff. ([2]; Pre-Dosing (D7)): −0.02247 | Post-SNL vs. BL: Predicted (LS) mean diff. [2]: 46.58 | duration of prolonged anti-nociceptive effect after one-time administration [2, 8]: not observed | Post-SNL vs. BL: Significant? [2]: Yes | Post-SNL vs. BL: Summary [2]: **** (p<0.0001, extremely/highly significant) | AUC of % PWT curve, Vehicle vs. treatment: Mean Diff. [2, 8]: −29.80 | AUC of % PWT curve, Vehicle vs. treatment: Summary [2, 8]: • (p<0.1, an established trend towards significance) | evF, Pre-Dosing vs. 2 h-PD: Summary [2, 8]: *** (p<0.001, extremely/highly significant) | evF, Pre-Dosing vs. 4 h-PD: Summary [2, 8]: ns | evF, Pre-Dosing vs. 8 h-PD: Summary [2, 8]: ns | evF, Pre-Dosing vs. 24 h-PD: Summary ([2]; CBC 10 mg/kg p.o.): ns | evF, Pre-Dosing vs. 2 h-PD: Predicted (LS) mean diff. [2, 8]: −26.59 | evF, Pre-Dosing vs. 4 h-PD: Predicted (LS) mean diff. [2, 8]: −9.891 | evF, Pre-Dosing vs. 8 h-PD: Predicted (LS) mean diff. [2, 8]: −16.03 | evF, Pre-Dosing vs. 24 h-PD: Predicted (LS) mean diff. ([2]; CBC 10 mg/kg p.o.): −9.176 | analgesic or sedative effect in fine motor kinematic performance ([3]; pregabalin 50 mg/kg): no analgesic or sedative effect
